In US10280159B2 (AbbVie Deutschland GmbH & Co. KG, priority 2015, dated 2019) one finds EC50 data, which are given here for five compounds.

Usually EC50 stands for the midpoint of the concentration-response curve.

The structures appear in SMILES notation. Like-named read-outs stand apart in the source and are kept apart here. A value given as a limit tells only on which side of the number the result lay.

What all share (format): cell-based
One assay addresses T1, human S1PR4 (Homo sapiens, UniProt O95977).
T1 construct: host or cells: CHO-K1
T1 sequence (O95977 1-384): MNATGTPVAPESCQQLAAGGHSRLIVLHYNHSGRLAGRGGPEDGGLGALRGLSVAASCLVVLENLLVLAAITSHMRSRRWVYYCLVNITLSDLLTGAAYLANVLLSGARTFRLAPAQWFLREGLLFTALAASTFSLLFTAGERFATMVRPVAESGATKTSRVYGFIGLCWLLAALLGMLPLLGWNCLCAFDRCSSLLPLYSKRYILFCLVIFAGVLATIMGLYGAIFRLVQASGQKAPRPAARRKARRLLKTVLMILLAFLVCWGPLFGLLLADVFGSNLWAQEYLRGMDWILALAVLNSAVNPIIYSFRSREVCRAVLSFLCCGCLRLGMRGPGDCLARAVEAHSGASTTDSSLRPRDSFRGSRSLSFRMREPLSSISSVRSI
Briefly: Intracellular Ca2+ release (FLIPR) agonist potency, S1P4. An outline of the steps: (§1)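 CHO-K1 cells recombinantly expressing the human S1P receptor plus aequorin and Gq/i5 were grown in F-12 Ham with 10% FBS. Agonist-induced intracellular Ca2+ release was read on a FLIPR Tetra. EC50 came from nonlinear fits of raw fluorescence normalized to the phospho-fingolimod reference curve.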

Another assay has as its target T2, human S1PR3 (Homo sapiens, UniProt Q99500).
T2 construct: host or cells: CHO-K1
Put plainly: Intracellular Ca2+ release (FLIPR) agonist potency, S1P3. An outline of the steps: as §1

The next assay addresses T3, human S1PR5 (Homo sapiens, UniProt Q9H228).
T3 construct: host or cells: CHO-K1
Briefly: Intracellular Ca2+ release (FLIPR) agonist potency, S1P5. Summed up: as §1

The next assay concerns the target T4, human S1PR1 (Homo sapiens, UniProt P21453).
T4 construct: host or cells: CHO-K1
Briefly: Intracellular Ca2+ release (FLIPR) agonist potency, S1P1. An outline of the steps: as §1

The mark [1] stands for this setting: recombinant CHO-K1 cells expressing human S1PR4, aequorin, Gq/i5, Calcium 5 FLIPR, read-out: S1P4 EC50.
Setting [2] is: recombinant CHO-K1 cells expressing human S1PR3, aequorin, Gq/i5, Calcium 5 FLIPR, read-out: S1P3 EC50.
[3] abbreviates: recombinant CHO-K1 cells expressing human S1PR5, aequorin, Gq/i5, Calcium 5 FLIPR, read-out: S1P5 EC50 range.
The mark [4] stands for this setting: recombinant CHO-K1 cells expressing human S1PR1, aequorin, Gq/i5, Calcium 5 FLIPR, read-out: S1P1 EC50.

T4 sequence (P21453 whole entry): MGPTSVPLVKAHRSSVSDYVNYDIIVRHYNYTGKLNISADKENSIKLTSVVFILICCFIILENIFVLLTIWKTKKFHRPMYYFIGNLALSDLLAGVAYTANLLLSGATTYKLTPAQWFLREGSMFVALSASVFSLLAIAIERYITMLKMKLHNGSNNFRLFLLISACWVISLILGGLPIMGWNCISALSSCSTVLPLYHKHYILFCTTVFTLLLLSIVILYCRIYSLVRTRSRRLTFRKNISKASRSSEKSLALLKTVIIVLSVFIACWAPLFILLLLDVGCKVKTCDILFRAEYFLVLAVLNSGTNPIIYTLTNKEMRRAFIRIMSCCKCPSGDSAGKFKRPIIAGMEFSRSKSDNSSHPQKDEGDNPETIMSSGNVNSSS
T2 sequence (Q99500 whole entry): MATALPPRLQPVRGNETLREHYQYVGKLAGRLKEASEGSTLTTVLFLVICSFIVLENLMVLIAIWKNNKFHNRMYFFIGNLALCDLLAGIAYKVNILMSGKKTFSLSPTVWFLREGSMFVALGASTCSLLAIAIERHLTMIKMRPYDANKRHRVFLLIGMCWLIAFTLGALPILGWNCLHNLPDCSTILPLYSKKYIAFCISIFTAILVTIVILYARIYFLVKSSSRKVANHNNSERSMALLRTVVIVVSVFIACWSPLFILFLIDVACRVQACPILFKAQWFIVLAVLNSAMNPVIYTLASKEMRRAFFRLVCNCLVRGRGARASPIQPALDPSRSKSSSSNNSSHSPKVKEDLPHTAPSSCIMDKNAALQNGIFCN
T3 sequence (Q9H228 whole entry): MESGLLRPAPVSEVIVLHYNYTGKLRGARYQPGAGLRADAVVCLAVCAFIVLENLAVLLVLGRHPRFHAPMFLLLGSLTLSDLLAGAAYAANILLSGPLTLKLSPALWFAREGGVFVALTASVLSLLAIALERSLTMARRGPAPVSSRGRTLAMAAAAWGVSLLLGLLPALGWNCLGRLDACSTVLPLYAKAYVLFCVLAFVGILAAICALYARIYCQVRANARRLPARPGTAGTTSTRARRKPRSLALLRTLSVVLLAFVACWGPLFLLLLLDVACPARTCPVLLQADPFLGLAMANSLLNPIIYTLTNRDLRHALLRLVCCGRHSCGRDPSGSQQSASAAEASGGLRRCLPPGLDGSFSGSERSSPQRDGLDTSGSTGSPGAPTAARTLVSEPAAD

As to `CCc1cccc(Cl)c1COc1ccc2c(c1)CCC(NCC(=O)N(C)OC)C2` (centres unmarked) [Compound 216, 2-[[6-[(2-chloro-6-ethyl-phenyl)methoxy]tetralin-2-yl]amino]-N-methoxy-N-methyl-acetamide], the concentration for a half-maximal effect (EC50) on human S1PR4 (setting [1]) is greater than 1 µM; on human S1PR3 (setting [2]) it was greater than 1 µM; at human S1PR5 (setting [3]), less than 0.01 µM; at human S1PR1 (setting [4]) it was greater than 1 µM.
For the compound `CCc1cccc(Cl)c1COc1ccc2c(c1)CCC(NCC(=O)NOC)C2` (centres unmarked) [Compound 218, 2-[[6-[(2-chloro-6-ethyl-phenyl)methoxy]tetralin-2-yl]amino]-N-methoxy-acetamide], the half-maximal effective concentration (EC50) on human S1PR4 (setting [1]) was greater than 1 µM; at human S1PR3 (setting [2]), greater than 1 µM; at human S1PR5 (setting [3]) it was 0.1 to 1 µM; on human S1PR1 (setting [4]), greater than 1 µM.
`CCc1cccc(Cl)c1COc1ccc2c(c1)CCC(NCc1cc(=O)[nH]o1)C2` (centres unmarked) [Compound 220, 5-[[[6-[(2-chloro-6-ethyl-phenyl)methoxy]tetralin-2-yl]amino]methyl]isoxazol-3-one]: the half-maximal effective concentration (EC50) was less than 1 µM at human S1PR4, greater than 1 µM on human S1PR3, less than 0.01 µM at human S1PR5 (S1P5 EC50 range) and less than 1 µM at human S1PR1.
On to `CCc1cccc(Cl)c1COc1ccc2c(c1)CCC(NCC(=O)NO)C2` (centres unmarked) [Compound 236, 2-((6-((2-chloro-6-ethylbenzyl)oxy)-1,2,3,4-tetrahydronaphthalen-2-yl)amino)acetohydroxamic acid], for which the half-maximal effective concentration (EC50) is less than 1 µM at human S1PR4 (setting [1]), greater than 1 µM at human S1PR3 (setting [2]), less than 0.01 µM at human S1PR5 (setting [3]) and greater than 1 µM on human S1PR1 (setting [4]).
Take `CN(CC(=O)O)C1COc2cc(-c3ccc(OCc4ccccc4)cc3)ccc2C1` (centres unmarked) [Compound 238, 2-((7-(4-(benzyloxy)phenyl)chroman-3-yl)(methyl)amino)acetic acid]: the EC50 was greater than 1 µM at human S1PR4 (setting [1]), greater than 1 µM on human S1PR3 (setting [2]), 0.01 to 0.1 µM at human S1PR5 (setting [3]) and less than 1 µM at human S1PR1 (setting [4]).
